Here are results for three molecules from publication PMC7278776, “Multidrug Resistance Modulation Activity of Silybin Derivatives and Their Anti-Inflammatory Potential” (Antioxidants, 2020).

One experiment concerns ABC superfamily genes. In words: Expression profile of ABC superfamily genes (real-time PCR). The settings on record: 10 µM, 48 h, without doxorubicin. The class given is cell-based, human. As for the experimental part: (§1) The A2780/DOX cell line was seeded into 5 cm Petri dishes with DMEM medium at 1 × 10^5 cell/mL. […] After 48 h of treatment, the cells were washed with PBS and harvested using the standard trypsin-EDTA procedure. The harvested cells were centrifuged (3200× g; 10 min, 4 °C). The supernatant was discarded, and the pellets were washed with 1.5 mL of cooled PBS (5400× g; 10 min, 4 °C). The washing step was repeated with 1 mL of PBS and the cells were centrifuged again (10,000× g; 3 min, 4 °C). Afterwards, the pellets were resuspended in 1 mL of Trizol (Invitrogen, Carlsbad, CA, USA) and transferred into pre-cooled RNase-free microfuge tubes. The samples were stored at −80 °C.
(§2) A Quant-iT RiboGreen RNA Assay Kit (Invitrogen) was used to determine the RNA concentration using the Infinite M200 plate reader (Tecan, Männedor, Switzerland). […]
(§3) The experiment was performed using the ViiA7 Real-Time polymerase chain reaction (PCR) System (Life Technologies, Camarillo, CA, USA) with a 384-well block. Before quantitative real-time PCR, the master mix was prepared by mixing 2 µL of 8 × diluted cDNA, 1.75 µL of RNase free water, 1 µL of 5 × HotFIREPol Probe quantitative PCR Mix Plus (Solis Biodyne, Tartu, Estonia) and 0.25 µL of specific 20 × TaqMan Gene Expression Assay (Life Technologies), giving 5 µL of final reaction volume. […] After each extension phase, the fluorescence values were acquired. […]
For orientation: Quantitative PCR measures a nucleic acid by following its amplification.

A further experiment concerns ABCB1 (P-gp). In words: ABCB1 mRNA expression (real-time PCR). The class given is cell-based, human. The settings on record: 10 µM, 48 h, without doxorubicin. How it is done: as §1
(§4) A Quant-iT RiboGreen RNA Assay Kit (Invitrogen) was used to determine the RNA concentration using the Infinite M200 plate reader (Tecan, Männedor, Switzerland). The cDNA was prepared from 0.5 µg of total RNA using a RevertAid First Strand Synthesis cDNA Kit (MBI Fermentas, Vilnius, Lithuania). The amplification of the ubiquitin C gene fragment was used to determine the quality of cDNA.
as §3, with “acquired. Duplicate samples were used for measurement and samples with a standard deviation of duplicates > 1.0 cycle threshold (Ct) were re-analyzed. The real time PCR procedure was maintained according to MIQE (Minimum information for publication of quantitative real-time PCR experiments) guidelines.” for “acquired.”

Another experiment relates to ABCB3. In words: ABCB3 mRNA expression (real-time PCR). The class given is cell-based, human. The settings on record: A2780/DOX, 10 µM, 48 h, without doxorubicin. As for the experimental part:
as §1, §2, §3

The test system of a further experiment is ABCB8. In words: ABCB8 mRNA expression (real-time PCR). It is filed as cell-based, human. The settings on record: A2780/DOX, 10 µM, 48 h, without doxorubicin. How it is done:
as §1, §4
as §3, with “acquired. Duplicate samples were used for measurement and samples with a standard deviation of duplicates > 1.0 cycle threshold (Ct) were re-analyzed. The real time PCR procedure was maintained according to MIQE (Minimum information for publication of quantitative real-time PCR experiments) guidelines.” for “acquired.”

The next experiment deals with ABCC2 (MRP2). Briefly: ABCC2 mRNA expression (real-time PCR). The class given is cell-based, human. The settings on record: 10 µM, 48 h, without doxorubicin. How it is done: as §1, §4
as §3, with “acquired. Duplicate samples were used for measurement and samples with a standard deviation of duplicates > 1.0 cycle threshold (Ct) were re-analyzed. The real time PCR procedure was maintained according to MIQE (Minimum information for publication of quantitative real-time PCR experiments) guidelines.” for “acquired.”

The test system of a further experiment is ABCD4. In words: ABCD4 mRNA expression (real-time PCR). The class given is cell-based, human. The settings on record: A2780/DOX, 10 µM, 48 h, without doxorubicin. As for the experimental part: The A2780/DOX cell line was seeded into 5 cm Petri dishes with DMEM medium at 1 × 10^5 cell/mL. After 24 h, the dishes were washed with PBS and new DMEM medium supplemented with doxorubicin (at concentration equal to IC25) and samples (10 µM) were added. After 48 h of treatment, the cells were washed with PBS and harvested using the standard trypsin-EDTA procedure. The harvested cells were centrifuged (3200× g; 10 min, 4 °C). The supernatant was discarded, and the pellets were washed with 1.5 mL of cooled PBS (5400× g; 10 min, 4 °C). The washing step was repeated with 1 mL of PBS and the cells were centrifuged again (10,000× g; 3 min, 4 °C). Afterwards, the pellets were resuspended in 1 mL of Trizol (Invitrogen, Carlsbad, CA, USA) and transferred into pre-cooled RNase-free microfuge tubes. The samples were stored at −80 °C.
as §4
as §3, with “acquired. Duplicate samples were used for measurement and samples with a standard deviation of duplicates > 1.0 cycle threshold (Ct) were re-analyzed. The real time PCR procedure was maintained according to MIQE (Minimum information for publication of quantitative real-time PCR experiments) guidelines.” for “acquired.”

In the next experiment the test system is ABCB7. Briefly: ABCB7 mRNA expression (real-time PCR). The class given is cell-based, human. The settings on record: A2780/DOX, 10 µM, 48 h, without doxorubicin. As for the experimental part:
as §1, §2, §3

On the set-up of experiment [1]: method as in PMID 15465345, PMID 19138735. The settings on record: cited from earlier work.
Details of experiment [2]: method as in PMID 15465345, PMID 19138735. The settings on record: cited from earlier work. The source holds these as a separate data set.
The next experiment relates to ABCA7. Briefly: ABCA7 mRNA expression (real-time PCR). It is filed as cell-based, human. The settings on record: A2780/DOX, 10 µM, 48 h, without doxorubicin. How it is done: as §1, §2, §3

Structures are written as SMILES.

As for `COc1cc([C@@H]2Oc3cc([C@H]4Oc5cc(O)cc(O)c5C(=O)[C@@H]4O)ccc3O[C@H]2CO)ccc1O` [Silybin B, silybin B], the “number of ABC genes with altered expression” value with ABC superfamily genes (out of 42 tested) is 24. The “downregulation of ABCB1 (P-gp) expression” value with ABCB1 (P-gp) came out at 79%. For the same molecule, in the experiment with ABCB1 (P-gp) (A2780/DOX), the “ABCB1 Expression Difference” value is listed as 0.208 and the “ABCB1 Treated vs. Untreated” value is given as “DOWN”. In the experiment on ABCB3, the “ABCB3 Expression Difference” value is listed as 0.365 and the “ABCB3 Treated vs. Untreated” value is recorded as “DOWN”. In addition, in the experiment with ABCB8, the “ABCB8 Expression Difference” value is recorded as 0.413 and the “ABCB8 Treated vs. Untreated” value is given as “DOWN”. Further, the “downregulation of ABCC2 (MRP2) expression” value with ABCC2 (MRP2) stood at 66%. In addition, in the experiment on ABCC2 (MRP2) (A2780/DOX), the “ABCC2 Expression Difference” value is on record as 0.341 and the “ABCC2 Treated vs. Untreated” value was “DOWN”. In addition, in the experiment with ABCD4, the “ABCD4 Expression Difference” value stood at 0.370 and the “ABCD4 Treated vs. Untreated” value is “DOWN”.
As to `COc1cc(C2Oc3cc(-c4oc5cc(O)cc(O)c5c(=O)c4O)ccc3OC2CO)ccc1O` (stereo not drawn) [Dehydrosilybin AB, 2,3-dehydrosilybin], in the experiment on ABCB7, the “ABCB7 Expression Difference” value is 1.463. In addition, the “radical scavenging compared to silybin” value in experiment [1] is 25 fold. The “inhibition of lipid peroxidation compared to silybin” value in experiment [2] is reported as 10 fold.
In the case of `COc1cc(C2Oc3cc([C@H]4Oc5cc(O)cc(O)c5C(=O)[C@@H]4O)ccc3OC2CO)ccc1O` (stereo partly drawn) [Silybin AB, silybin], the “number of ABC genes with increased expression” value in the experiment on ABC superfamily genes stood at 20. Moreover, the “ABCA7 Expression Difference” value in the experiment with ABCA7 came to 2.704. Also, the “ABCB7 Expression Difference” value with ABCB7 was 1.803. For the same molecule, the “ABCB8 Expression Difference” value in the experiment on ABCB8 is given as 1.503. For the same molecule, the “ABCD4 Expression Difference” value in the experiment with ABCD4 is recorded as 1.882.
